Reference: PMC7363806, “Characterization of Corosolic Acid as a KPC-2 Inhibitor That Increases the Susceptibility of KPC-2-Positive Bacteria to Carbapenems” (Frontiers in Pharmacology, 2020)

Molecular target: T1, KPC-2 (Klebsiella pneumoniae, UniProt Q9F663)
T1 construct: recombinant KPC-2 from pET28a (bla KPC-2 gene, NCBI NG_049253.1), expressed in E. coli BL21(DE3), Ni column purified
Test: nitrocefin hydrolysis assay with purified KPC-2, absorbance at […] nm
Assay type: biochemical

T1 sequence (Q9F663 25-293 limits assumed): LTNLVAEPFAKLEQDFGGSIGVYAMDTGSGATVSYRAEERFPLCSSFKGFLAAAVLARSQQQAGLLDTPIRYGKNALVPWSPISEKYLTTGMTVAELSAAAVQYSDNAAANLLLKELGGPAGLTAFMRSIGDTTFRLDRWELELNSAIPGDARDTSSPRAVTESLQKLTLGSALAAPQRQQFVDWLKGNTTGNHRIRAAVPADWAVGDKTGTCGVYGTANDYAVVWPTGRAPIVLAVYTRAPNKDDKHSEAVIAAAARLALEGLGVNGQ

## C[C@H]1[C@H](C)CC[C@]2(C(=O)O)CC[C@]3(C)C(=CC[C@@H]4[C@@]5(C)C[C@@H](O)[C@H](O)C(C)(C)[C@@H]5CC[C@]43C)[C@H]12 [CA, corosolic acid]
  IC50: 4.97 µM
